Measured values reported in patent US20060122228A1, “Methods and compositions using immunomodulatory compounds for treatment and management of central nervous system injury” (priority 2004, published 2006).
“And” between values parts separate entries of the source, which are not always exact repeats. Identical values can stand only once. Like-named read-outs stand apart in the source and are kept apart here.

How the values were obtained:
[1] = test system: IL-6 production; test: LPS-stimulated production of IL-6 by PBMC; format: cell-based
[2] = test system: IFN-γ production; test: Augmentation of IFN-γ production following TCR activation of T-cells; format: cell-based
[3] = test system: TNF-α production; test: Inhibition of TNF-α production following LPS-stimulation of human PBMC; format: cell-based
[4] = test system: IL-2 production; test: Augmentation of IL-2 production following TCR activation of PBMC; format: cell-based
[5] = test system: TNF-α production; conditions: LPS-stimulated human whole blood, cited from earlier work; for IC50: read-out: IC50 for inhibiting production of TNF-α
[6] = test system: IL-10 production; test: LPS-stimulated production of IL-10 by PBMC; format: cell-based
[7] = test system: T-cells; test: Stimulation of T-cell proliferation following primary induction by T-cell receptor (TCR) activation; format: cell-based
[8] = test system: IL-1β production; test: LPS-stimulated production of IL-1β by PBMC; format: cell-based
[9] = test system: TNF-α production; conditions: LPS-stimulated PBMC, cited from earlier work; for IC50: read-out: IC50 for inhibiting production of TNF-α
[10] = test system: Hs Sultan cells; test: Inhibition of proliferation of Hs Sultan cells; format: cell-based; conditions: read-out: concentration achieving 50% inhibition of proliferation
[11] = test system: MM.IS cells; test: Inhibition of proliferation of MM.IS cells; format: cell-based; conditions: read-out: concentration achieving 50% inhibition of proliferation
[12] = cited from earlier work

Row | SMILES | IC50 for inhibiting production of TNF-α [5] [µg/mL] | IC50 [5] [nM] | IC50 for inhibiting production of TNF-α [9] [µg/mL] | IC50 [9] [nM] | stability / interconversion in aqueous solvent systems [12] | other results
1 | Nc1cccc2c1CN(C1CCC(=O)NC1=O)C2=O (stereo not shown) [3-(4-amino-1-oxo-1,3-dihydro-isoindol-2-yl)-piperidine-2,6-dione] | ~0.1036 | ~480 | ~0.0259 | ~100 | – | effect on LPS-stimulated production of IL-6 [1]: dose-dependent inhibition; potency relative to thalidomide in augmenting the production of IFN-γ [2]: 50-100 times; effect on LPS-stimulated production of TNF-α [3]: dose-dependent inhibition; potency relative to thalidomide in augmenting the production of IL-2 [4]: 50-100 times; effect on production of the anti-inflammatory cytokine IL-10 [6]: increased production; potency relative to thalidomide in stimulating the proliferation of T-cells [7]: 50-100 times; effect on LPS-stimulated production of IL-1β [8]: dose-dependent inhibition
2 | Nc1cccc2c1C(=O)N(C1CCC(=O)NC1=O)C2=O (stereo not shown) [4-(amino)-2-(2,6-dioxo(3-piperidyl))-isoindoline-1,3-dione] | ~0.00683 | ~25 | ~0.00655 | ~24 | – | IC50 [10]: 0.00273 µg/mL to 0.0273 µg/mL and 10 nM to 100 nM; IC50 [11]: 0.00273 µg/mL to 0.0273 µg/mL and 10 nM to 100 nM
3 | Nc1cccc2c1CN(C1CCC(=O)NC1=O)C2=O (stereo not shown) [Form A, 3-(4-amino-1-oxo-1,3 dihydro-isoindol-2-yl)-piperidene-2,6-dione] | – | – | – | – | – | thermodynamic stability among polymorphs ([12]; anhydrous polymorphs): most thermodynamically stable anhydrous polymorph
4 | Nc1cccc2c1CN(C1CCC(=O)NC1=O)C2=O (stereo not shown) [Form B, 3-(4-amino-1-oxo-1,3 dihydro-isoindol-2-yl)-piperidene-2,6-dione] | – | – | – | – | converts to Form E | –
5 | Nc1cccc2c1CN(C1CCC(=O)NC1=O)C2=O (stereo not shown) [Form E, 3-(4-amino-1-oxo-1,3 dihydro-isoindol-2-yl)-piperidene-2,6-dione] | – | – | – | – | most stable form | –
6 | O=C1CCC(N2C(=O)c3ccccc3C2=O)C(=O)N1 (stereo not shown) [Thalidomide, thalidomide, reference compound] | – | – | ~50.2 | ~194000 | – | –
